System: 889142-216-R-J1-PDC complex spheroid viability
Experiment: Anticancer human tumor 889142-216-R-J1-PDC patient-derived bladder carcinoma cell line growth inhibition [POLQ]
Conditions: for IC50: curve of first compound; for viability, T/C: stronger effect = lower value
Procedure, shortened: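 Growth inhibition in 3D: complex spheroids (tumor PDC, HUVEC, MSC) treated with POLQ inhibitor combinations; where Cmax unknown, highest tested concentration 10 microM, except SN-38 at 1 microM.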

[1] = second compound 0.0316 µM, first compound 0.00316 µM
[2] = second compound 0.0316 µM, first compound 0.01 µM
[3] = second compound 0.0316 µM, first compound 0.0316 µM
[4] = second compound 0.0316 µM, first compound 0.1 µM
[5] = second compound 0.0316 µM, first compound 0.316 µM
[6] = second compound 0.0316 µM, first compound 1 µM
[7] = second compound 0.1 µM, first compound 0.00316 µM
[8] = second compound 0.1 µM, first compound 0.01 µM
[9] = second compound 0.1 µM, first compound 0.0316 µM
[10] = second compound 0.1 µM, first compound 0.1 µM
[11] = second compound 0.1 µM, first compound 0.316 µM
[12] = second compound 0.1 µM, first compound 1 µM
[13] = second compound 0.316 µM, first compound 0.00316 µM
[14] = second compound 0.316 µM, first compound 0.01 µM
[15] = second compound 0.316 µM, first compound 0.0316 µM
[16] = second compound 0.316 µM, first compound 0.1 µM
[17] = second compound 0.316 µM, first compound 0.316 µM
[18] = second compound 0.316 µM, first compound 1 µM
[19] = second compound 1 µM, first compound 0.00316 µM
[20] = second compound 1 µM, first compound 0.01 µM
[21] = second compound 1 µM, first compound 0.0316 µM
[22] = second compound 1 µM, first compound 0.1 µM
[23] = second compound 1 µM, first compound 0.316 µM
[24] = second compound 1 µM, first compound 1 µM
[25] = second compound 3.16 µM, first compound 0.00316 µM
[26] = second compound 3.16 µM, first compound 0.01 µM
[27] = second compound 3.16 µM, first compound 0.0316 µM
[28] = second compound 3.16 µM, first compound 0.1 µM
[29] = second compound 3.16 µM, first compound 0.316 µM
[30] = second compound 3.16 µM, first compound 1 µM
[31] = second compound 10 µM, first compound 0.00316 µM
[32] = second compound 10 µM, first compound 0.01 µM
[33] = second compound 10 µM, first compound 0.0316 µM
[34] = second compound 10 µM, first compound 0.1 µM
[35] = second compound 10 µM, first compound 0.316 µM
[36] = second compound 10 µM, first compound 1 µM
[37] = second compound 0.0316 µM, first compound 3.16 µM
[38] = second compound 0.0316 µM, first compound 10 µM
[39] = second compound 0.1 µM, first compound 3.16 µM
[40] = second compound 0.1 µM, first compound 10 µM
[41] = second compound 0.316 µM, first compound 3.16 µM
[42] = second compound 0.316 µM, first compound 10 µM
[43] = second compound 1 µM, first compound 3.16 µM
[44] = second compound 1 µM, first compound 10 µM
[45] = second compound 3.16 µM, first compound 3.16 µM
[46] = second compound 3.16 µM, first compound 10 µM
[47] = second compound 10 µM, first compound 3.16 µM
[48] = second compound 10 µM, first compound 10 µM
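Note: spheroids exposed to compounds for seven days.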
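Throughout, for viability, T/C: 100% = DMSO vehicle control viability.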

Structure (SMILES): C=CCn1c(=O)c2cnc(Nc3ccc(N4CCN(C)CC4)cc3)nc2n1-c1cccc(C(C)(C)O)n1 + Nc1ccc(C#CCN(C(=O)Cc2ncc(C(F)(F)F)cc2C(F)(F)F)c2ccc(F)cc2)nn1
- IC50 (second compound 0.0316 µM): > 1 µM
- IC50 (second compound 0.1 µM): > 1 µM
- IC50 (second compound 0.316 µM): > 1 µM
- IC50 (second compound 1 µM): > 1 µM
- IC50 (second compound 3.16 µM): > 1 µM
- IC50 (second compound 10 µM): > 1 µM
- viability, T/C [1]: 113%
- viability, T/C [2]: 118%
- viability, T/C [3]: 88.4%
- viability, T/C [4]: 87.2%
- viability, T/C [5]: 74.8%
- viability, T/C [6]: 58.2%
- viability, T/C [7]: 114%
- viability, T/C [8]: 119%
- viability, T/C [9]: 108%
- viability, T/C [10]: 85.1%
- viability, T/C [11]: 64.5%
- viability, T/C [12]: 56.2%
- viability, T/C [13]: 106%
- viability, T/C [14]: 79.1%
- viability, T/C [15]: 78%
- viability, T/C [16]: 80.7%
- viability, T/C [17]: 72.5%
- viability, T/C [18]: 62.4%
- viability, T/C [19]: 101%
- viability, T/C [20]: 83.8%
- viability, T/C [21]: 99.4%
- viability, T/C [22]: 78.4%
- viability, T/C [23]: 81.1%
- viability, T/C [24]: 58.9%
- viability, T/C [25]: 98.9%
- viability, T/C [26]: 87.4%
- viability, T/C [27]: 98.1%
- viability, T/C [28]: 90.3%
- viability, T/C [29]: 84.5%
- viability, T/C [30]: 59.1%
- viability, T/C [31]: 97.4%
- viability, T/C [32]: 96%
- viability, T/C [33]: 107%
- viability, T/C [34]: 102%
- viability, T/C [35]: 66.4%
- viability, T/C [36]: 54.6%

Structure (SMILES): CNCc1ccc(-c2[nH]c3cc(F)cc4c3c2CCNC4=O)cc1 + Nc1ccc(C#CCN(C(=O)Cc2ncc(C(F)(F)F)cc2C(F)(F)F)c2ccc(F)cc2)nn1
- IC50 (second compound 0.0316 µM): > 10 µM
- IC50 (second compound 0.1 µM): > 10 µM
- IC50 (second compound 0.316 µM): > 10 µM
- IC50 (second compound 1 µM): > 10 µM
- IC50 (second compound 3.16 µM): > 10 µM
- IC50 (second compound 10 µM): > 10 µM
- viability, T/C [3]: 109%
- viability, T/C [4]: 115%
- viability, T/C [5]: 123%
- viability, T/C [6]: 108%
- viability, T/C [37]: 74.8%
- viability, T/C [38]: 84.5%
- viability, T/C [9]: 133%
- viability, T/C [10]: 93%
- viability, T/C [11]: 104%
- viability, T/C [12]: 96.3%
- viability, T/C [39]: 107%
- viability, T/C [40]: 83.9%
- viability, T/C [15]: 144%
- viability, T/C [16]: 82.9%
- viability, T/C [17]: 78.2%
- viability, T/C [18]: 78.2%
- viability, T/C [41]: 81.2%
- viability, T/C [42]: 82.8%
- viability, T/C [21]: 128%
- viability, T/C [22]: 83.3%
- viability, T/C [23]: 99.3%
- viability, T/C [24]: 88.2%
- viability, T/C [43]: 92.3%
- viability, T/C [44]: 75.5%
- viability, T/C [27]: 116%
- viability, T/C [28]: 96.1%
- viability, T/C [29]: 134%
- viability, T/C [30]: 122%
- viability, T/C [45]: 106%
- viability, T/C [46]: 81.4%
- viability, T/C [33]: 125%
- viability, T/C [34]: 98.4%
- viability, T/C [35]: 104%
- viability, T/C [36]: 129%
- viability, T/C [47]: 108%
- viability, T/C [48]: 96.8%

Structure (SMILES): COc1ccc([C@@H](O)c2cc(-c3ncnc4cc(N5CCOCC5)ccc34)c(F)cc2Cl)nn1 + Nc1ccc(C#CCN(C(=O)Cc2ncc(C(F)(F)F)cc2C(F)(F)F)c2ccc(F)cc2)nn1
- IC50 (second compound 0.0316 µM): 3.14 µM
- IC50 (second compound 0.1 µM): 5.02 µM
- IC50 (second compound 0.316 µM): 4.55 µM
- IC50 (second compound 1 µM): 5.06 µM
- IC50 (second compound 3.16 µM): 5.83 µM
- IC50 (second compound 10 µM): 6.74 µM
- viability, T/C [3]: 84.6%
- viability, T/C [4]: 80.6%
- viability, T/C [5]: 81.5%
- viability, T/C [6]: 87.8%
- viability, T/C [37]: 49.8%
- viability, T/C [38]: 35.2%
- viability, T/C [9]: 113%
- viability, T/C [10]: 77.5%
- viability, T/C [11]: 80%
- viability, T/C [12]: 73.4%
- viability, T/C [39]: 56.8%
- viability, T/C [40]: 39.5%
- viability, T/C [15]: 87.5%
- viability, T/C [16]: 95%
- viability, T/C [17]: 72.9%
- viability, T/C [18]: 72.8%
- viability, T/C [41]: 54%
- viability, T/C [42]: 39.6%
- viability, T/C [21]: 86.2%
- viability, T/C [22]: 72.1%
- viability, T/C [23]: 72.4%
- viability, T/C [24]: 65.9%
- viability, T/C [43]: 62.2%
- viability, T/C [44]: 37.8%
- viability, T/C [27]: 74.3%
- viability, T/C [28]: 65.4%
- viability, T/C [29]: 73.8%
- viability, T/C [30]: 65.2%
- viability, T/C [45]: 63.2%
- viability, T/C [46]: 39.3%
- viability, T/C [33]: 105%
- viability, T/C [34]: 77.9%
- viability, T/C [35]: 96.7%
- viability, T/C [36]: 60.1%
- viability, T/C [47]: 56.6%
- viability, T/C [48]: 47.5%

Structure (SMILES): Cn1ncnc1[C@H]1c2n[nH]c(=O)c3cc(F)cc(c23)N[C@@H]1c1ccc(F)cc1 + Nc1ccc(C#CCN(C(=O)Cc2ncc(C(F)(F)F)cc2C(F)(F)F)c2ccc(F)cc2)nn1
- IC50 (second compound 0.0316 µM): > 0.1 µM
- IC50 (second compound 0.1 µM): > 0.1 µM
- IC50 (second compound 0.316 µM): > 0.1 µM
- IC50 (second compound 1 µM): > 0.1 µM
- IC50 (second compound 3.16 µM): > 0.1 µM
- IC50 (second compound 10 µM): > 0.1 µM
- viability, T/C (second compound 0.0316 µM, first compound 0.000316 µM): 96.8%
- viability, T/C (second compound 0.0316 µM, first compound 0.001 µM): 121%
- viability, T/C [1]: 110%
- viability, T/C [2]: 85.7%
- viability, T/C [3]: 90.3%
- viability, T/C [4]: 87.4%
- viability, T/C (second compound 0.1 µM, first compound 0.000316 µM): 176%
- viability, T/C (second compound 0.1 µM, first compound 0.001 µM): 83.6%
- viability, T/C [7]: 92%
- viability, T/C [8]: 91.4%
- viability, T/C [9]: 105%
- viability, T/C [10]: 101%
- viability, T/C (second compound 0.316 µM, first compound 0.000316 µM): 108%
- viability, T/C (second compound 0.316 µM, first compound 0.001 µM): 102%
- viability, T/C [13]: 91.3%
- viability, T/C [14]: 79.6%
- viability, T/C [15]: 97.2%
- viability, T/C [16]: 73.2%
- viability, T/C (second compound 1 µM, first compound 0.000316 µM): 127%
- viability, T/C (second compound 1 µM, first compound 0.001 µM): 81.1%
- viability, T/C [19]: 124%
- viability, T/C [20]: 95.9%
- viability, T/C [21]: 67.4%
- viability, T/C [22]: 72.2%
- viability, T/C (second compound 3.16 µM, first compound 0.000316 µM): 110%
- viability, T/C (second compound 3.16 µM, first compound 0.001 µM): 124%
- viability, T/C [25]: 135%
- viability, T/C [26]: 77.1%
- viability, T/C [27]: 92.3%
- viability, T/C [28]: 87.2%
- viability, T/C (second compound 10 µM, first compound 0.000316 µM): 122%
- viability, T/C (second compound 10 µM, first compound 0.001 µM): 93.5%
- viability, T/C [31]: 113%
- viability, T/C [32]: 90.2%
- viability, T/C [33]: 115%
- viability, T/C [34]: 80.4%
